The source of these data is patent publication US8912227B1, “Bicyclic pyrrole derivatives useful as agonists of GPR120” (Janssen Pharmaceutica NV, priority 2014, dated 2014).

Assay [1] has as its target T1, long form of human GPR120 (Homo sapiens, UniProt Q5NUL3).
T1 construct: host or cells: PathHunter CHO-K1 GPR120 β-Arrestin Cell Line
Put plainly: Human GPR120 DiscoveRx PathHunter β-Arrestin assay, Procedure β-arrestin A. The class given is cell-based. The conditions noted are these: PathHunter CHO-K1 GPR120 β-Arrestin cell line, 3000 cells per well. In a few lines:
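PathHunter CHO-K1 β-arrestin cells (NM_181745 construct) were plated at 3000/well overnight, then held 60 min in HBSS/20 mM HEPES/0.1% BSA, pH 7.4. Compounds (dilution series 25–0.012 µM before addition) were added for 90 min at 37 °C, followed by 60 min RT luminescence detection. EC50 was fitted from % of positive control with Hill slope fixed at 1.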

Assay [2] addresses T2, short form of the GPR120 receptor (Homo sapiens, UniProt Q5NUL3).
T2 construct: host or cells: PathHunter CHO-K1 GPR120S β-Arrestin Cell Line
Kind of assay: Human GPR120 DiscoveRx PathHunter β-Arrestin assay, Procedure β-arrestin B. The class given is cell-based. The conditions noted are these: PathHunter CHO-K1 GPR120S β-Arrestin cell line, 5000 cells/well. An excerpt: The binding of an agonist (medium/long chain fatty acids or small molecule agonists) to the G-protein-coupled receptor GPR120 activates phospholipase C, leading to release of intracellular Ca^+2 through the generation of inositol 1,4,5-trisphosphate (InsP3 or IP3). GPR120 activation can also trigger intracellular signaling via recruitment of β-Arrestin. In the present method, agonist-induced activation of the human GPR120 receptor is monitored through the use of PathHunter CHO-K1 GPR120 β-Arrestin Cell Line engineered by DiscoveRx, as detailed below. The cell lines are designed to co-express both the ProLink/Enzyme Donor (PK)-tagged GPCR and the Enzyme […] (EA)-tagged Beta-Arrestin fusion proteins. Upon GPR120 receptor stimulation/activation, the EA-tagged β-Arrestin portion is translocated to the tagged receptor, where the two enzyme fragments are brought within close proximity. Under these conditions, these fragments can interact and form an active Beta-gal enzyme complex through Enzyme Fragment Complementation (EFC). This active Beta-gal complex can enzymatically hydrolyse the substrate to produce a detectable light signal; therefore, activation as a function of agonist concentration can be expressed as an EC50 value to determine relative compound activities. This in vitro assay therefore serves to assess compound agonist activity of the GPR120.
In Procedure β-arrestin B the cells used were PathHunter CHO-K1 GPR120S β-Arrestin Cell Line, expressing the short form of the GPR120 receptor (Accession #NM_181745), with 5000 cells/well.
The selected CHO-K1 GPR120 β-Arrestin cells were cultured in Ham's F12 media supplemented with 10% fetal bovine serum (FBS), 1% Glutamine, 1×p/s, 800 μg/ml G418 and 300 μg/ml Hygromycin B (for selection). Cell stocks were maintained and grown in a sub-confluent state using standard cell culture procedures. The day before the experiment, the cells were harvested with non-enzymatic cell dissociation buffer and re-suspended in complete growth media at the desired concentration. A Corning 384-plate was then seeded with the proper number of cells in a volume of 25 μL, per well. The seeded plates were incubated overnight at 37° C.
On the day of the experiment, the Assay Buffer containing (a) HBSS with Ca^++ and Mg^++, (b) 20 mM HEPES, and (c) 0.1% BSA stabilizer (pH 7.4) was prepared. The growth medium was gently removed from the cell plates and 20 μL of Assay Buffer added to each well. The plate was then incubated at 37° C. for 60 mins. Test compounds were serially diluted in Assay Buffer to desired concentrations (more particularly, to one or more of the following μM concentrations: 25 μM, 12.5 μM, 6.25 μM, 3.125 μM, 1.562 μM, 0.781 μM, 0.391 μM, 0.195 μM, 0.098 μM, 0.049 μM, 0.024 μM, 0.012 μM). Five μl of compound dilution was then added to each well and the plate incubated at 37° C. for 90 mins. The detection reagents were prepared according to the manufacture's instruction. Twelve μL of the detection reagents were added to each well and the plate incubated at room temperature for 60 mins.
The plates were read on an EnVision instrument, using Protocol name: Luminescence, Plate type: 384 Costar, Measurement height: 3 mm, Measurement time: 1 s, Aperture: 384 Plate aperture. The % activity relative to the positive control was calculated using the following equation:
The % Activity values were plotted versus the concentration of test compound and fitted to a sigmoidal dose-response curve with a Hill slope=1 (fixed value) using nonlinear regression with GraphPad Prism 5.0 to calculate the EC50 values. The Fitting Equation was: Y=Bottom+(Top−Bottom)/(1+10^((LogEC50−X)*HillSlope)), where X is the log of the concentration and Y is the response.

Molecules are shown by their SMILES.

T1 sequence (Q5NUL3 1-377 isoform Q5NUL3-1): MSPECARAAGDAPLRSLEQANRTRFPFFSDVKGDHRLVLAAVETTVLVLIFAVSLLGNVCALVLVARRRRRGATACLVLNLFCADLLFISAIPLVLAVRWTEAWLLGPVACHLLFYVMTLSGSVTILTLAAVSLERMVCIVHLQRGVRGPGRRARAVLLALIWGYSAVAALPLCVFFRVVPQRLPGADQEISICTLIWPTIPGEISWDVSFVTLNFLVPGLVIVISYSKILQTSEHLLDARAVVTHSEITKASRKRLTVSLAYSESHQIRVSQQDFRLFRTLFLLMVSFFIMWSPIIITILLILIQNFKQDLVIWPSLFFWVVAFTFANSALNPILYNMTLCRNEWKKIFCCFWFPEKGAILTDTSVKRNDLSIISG
T1 sequence (P32121 whole entry partner): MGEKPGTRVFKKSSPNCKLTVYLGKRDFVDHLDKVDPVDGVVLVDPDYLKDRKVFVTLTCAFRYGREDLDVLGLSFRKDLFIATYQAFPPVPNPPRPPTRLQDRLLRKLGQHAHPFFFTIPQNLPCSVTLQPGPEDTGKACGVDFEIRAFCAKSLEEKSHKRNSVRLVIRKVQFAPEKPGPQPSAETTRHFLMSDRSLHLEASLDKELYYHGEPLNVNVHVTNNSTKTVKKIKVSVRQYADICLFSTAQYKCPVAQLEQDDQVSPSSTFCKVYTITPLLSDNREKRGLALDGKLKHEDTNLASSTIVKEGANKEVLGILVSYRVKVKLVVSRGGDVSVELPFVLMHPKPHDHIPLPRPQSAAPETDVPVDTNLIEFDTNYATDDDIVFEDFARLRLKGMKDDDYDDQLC
T2 sequence (Q5NUL3 whole entry): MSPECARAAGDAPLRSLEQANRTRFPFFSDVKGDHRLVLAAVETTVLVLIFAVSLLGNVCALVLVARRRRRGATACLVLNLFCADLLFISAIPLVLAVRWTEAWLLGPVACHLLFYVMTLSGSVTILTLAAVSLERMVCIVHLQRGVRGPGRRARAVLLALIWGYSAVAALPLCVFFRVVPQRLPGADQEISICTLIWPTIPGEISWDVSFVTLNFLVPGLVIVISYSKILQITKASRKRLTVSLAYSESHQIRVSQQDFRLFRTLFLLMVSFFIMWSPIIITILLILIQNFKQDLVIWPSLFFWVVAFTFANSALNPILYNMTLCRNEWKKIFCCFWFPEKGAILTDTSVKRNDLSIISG
T2 sequence (P32121 whole entry partner): as the sequence (P32121 whole entry partner) above

One may read the EC50 as the concentration at which the effect is half-maximal. On to `Cc1c(CCC(=O)O)ccc(OCc2cccn2-c2ccc(Cl)cc2)c1C` [Compound 1, 3-(4-{[1-(4-Chlorophenyl)-1H-pyrrol-2-yl]methoxy}-2,3-dimethylphenyl)propanoic acid], for which, in assay [1], a half-maximal effect (EC50) was put at 1040 nM.

As to `OCCCc1ccc(OCc2c(C(F)(F)F)ccn2-c2ccc(Cl)cc2)c(F)c1F` [Compound 29, 3-(4-{[1-(4-Chlorophenyl)-3-(trifluoromethyl)-1H-pyrrol-2-yl]methoxy}-2,3-difluorophenyl)propan-1-ol], the figures for the EC50 in assay [1] and in assay [2] were 53 nM and 63 nM, respectively.

Turning to `CCc1ccc(-n2ccc(C(F)(F)F)c2COc2ccc(CCC(=O)O)c(F)c2F)cc1` [Compound 34, 3-(4-[[1-(4-ethylphenyl)-3-(trifluoromethyl)-1H-pyrrol-2-yl]methoxy]-2,3-difluorophenyl)propanoic acid], the EC50 turned out to be 171 nM in assay [1] and 179 nM in assay [2].

Take `Cc1ccc(-n2ccc(C(F)(F)F)c2COc2c(F)cc(CCC(=O)O)cc2F)cc1` [Compound 39, 3-(3,5-difluoro-4-[[1-(4-methylphenyl)-3-(trifluoromethyl)-1H-pyrrol-2-yl]methoxy]phenyl)propanoic acid]: the EC50 in assay [1] stood at 264 nM; in assay [2] it was 219 nM.
